{
  "source": "PubChem BioAssay AID1259409",
  "about": "(Chemical Carcinogenesis Research Information System (CCRIS), 2018)",
  "origin": "cited, not measured here",
  "tested_on": "rodent chemically induced tumor inhibition, incidence and multiplicity",
  "experiment": "CCRIS tumor inhibitor studies",
  "conditions": "Route [Inhibitor]: ORAL, Species: RAT",
  "from_the_text": "The CCRIS database contains chemical records with carcinogenicity, mutagenicity, tumor promotion, and tumor inhibition test results. It was developed by the National Cancer Institute (NCI). Data are derived from studies cited in primary journals, current awareness tools, NCI reports, and other sources. Test results have been reviewed by experts in carcinogenesis and mutagenesis.\nCCRIS provides historical information from the years 1985 - 2011. It is no longer updated.\nThis is an archive assay for CCRIS tumor inhibitor studies.",
  "data": [
    {"smiles": "CCCCCCCCCCCCCCCC(=O)CC(=O)CCCCCCCCCCCCCCC", "values": [
      {"measurement": "tumour outcome (control, treated, inhibition, significance)", "setting": "Carcinogen: 2,2'-DIHYDROXY-DI-N-PROPYLNITROSAMINE, 53609-64-6, N-ETHYL-N-HYDROXYETHYLNITROSAMINE, 13147-25-6, 3,2'-DIMETHYL-4-AMINO-, Carcinogen: 2,2'-DIHYDROXY-DI-N-PROPYLNITROSAMINE, 53609-64-6, N-ETHYL-N-HYDROXYETHYLNITROSAMINE, 13147-25-6, 3,2'-DIMETHYL-4-AMINO-, Dose [Inhibitor]: 0, 0.2% IN DIET FOR 32 WK BEGINNING 1 WK POST CARCINOGEN TREATMENT (STUDY DURATION: 36 WK), Strain/Sex: F344/MALE, Target Tissue: Type of Lesion: LARGE INTESTINE: ADENOMA, Dose [Carcinogen]: 1000 MG/KG BW DHPN TWICE, 1500 MG/KG BW EHEN TWICE, 75 MG/KG BW 3 TIMES ADMINISTERED OVER FIRST 3 WK, Promoter: NONE USED", "result": "7/14 (50%), 7/15 (47%), 6%, not significant"},
      {"measurement": "tumour outcome (control, treated, inhibition, significance)", "setting": "Carcinogen: 2,2'-DIHYDROXY-DI-N-PROPYLNITROSAMINE, 53609-64-6, N-ETHYL-N-HYDROXYETHYLNITROSAMINE, 13147-25-6, 3,2'-DIMETHYL-4-AMINO-, Carcinogen: 2,2'-DIHYDROXY-DI-N-PROPYLNITROSAMINE, 53609-64-6, N-ETHYL-N-HYDROXYETHYLNITROSAMINE, 13147-25-6, 3,2'-DIMETHYL-4-AMINO-, Dose [Inhibitor]: 0, 0.2% IN DIET FOR 32 WK BEGINNING 1 WK POST CARCINOGEN TREATMENT (STUDY DURATION: 36 WK), Strain/Sex: F344/MALE, Target Tissue: Type of Lesion: LARGE INTESTINE: CARCINOMA, Dose [Carcinogen]: 1000 MG/KG BW DHPN TWICE, 1500 MG/KG BW EHEN TWICE, 75 MG/KG BW 3 TIMES ADMINISTERED OVER FIRST 3 WK, Promoter: NONE USED", "result": "3/14 (21%), 2/15 (13%0, 38%, not significant"},
      {"measurement": "tumour outcome (control, treated, inhibition, significance)", "setting": "Carcinogen: 2,2'-DIHYDROXY-DI-N-PROPYLNITROSAMINE, 53609-64-6, N-ETHYL-N-HYDROXYETHYLNITROSAMINE, 13147-25-6, 3,2'-DIMETHYL-4-AMINO-, Carcinogen: 2,2'-DIHYDROXY-DI-N-PROPYLNITROSAMINE, 53609-64-6, N-ETHYL-N-HYDROXYETHYLNITROSAMINE, 13147-25-6, 3,2'-DIMETHYL-4-AMINO-, Dose [Inhibitor]: 0, 0.2% IN DIET FOR 32 WK BEGINNING 1 WK POST CARCINOGEN TREATMENT (STUDY DURATION: 36 WK), Strain/Sex: F344/MALE, Target Tissue: Type of Lesion: LIVER: HEPATOCELLULAR CARCINOMA, Dose [Carcinogen]: 1000 MG/KG BW DHPN TWICE, 1500 MG/KG BW EHEN TWICE, 75 MG/KG BW 3 TIMES ADMINISTERED OVER FIRST 3 WK, Promoter: NONE USED", "result": "6/14 (43%), 1/15 (7%), 84%, p<0.05"},
      {"measurement": "tumour outcome (control, treated, inhibition, significance)", "setting": "Carcinogen: 2,2'-DIHYDROXY-DI-N-PROPYLNITROSAMINE, 53609-64-6, N-ETHYL-N-HYDROXYETHYLNITROSAMINE, 13147-25-6, 3,2'-DIMETHYL-4-AMINO-, Carcinogen: 2,2'-DIHYDROXY-DI-N-PROPYLNITROSAMINE, 53609-64-6, N-ETHYL-N-HYDROXYETHYLNITROSAMINE, 13147-25-6, 3,2'-DIMETHYL-4-AMINO-, Dose [Inhibitor]: 0, 0.2% IN DIET FOR 32 WK BEGINNING 1 WK POST CARCINOGEN TREATMENT (STUDY DURATION: 36 WK), Strain/Sex: F344/MALE, Target Tissue: Type of Lesion: LUNG: ADENOMA, Dose [Carcinogen]: 1000 MG/KG BW DHPN TWICE, 1500 MG/KG BW EHEN TWICE, 75 MG/KG BW 3 TIMES ADMINISTERED OVER FIRST 3 WK, Promoter: NONE USED", "result": "7/14 (50%), 6/15 (40%), 20%, not significant"},
      {"measurement": "tumour outcome (control, treated, inhibition, significance)", "setting": "Carcinogen: 2,2'-DIHYDROXY-DI-N-PROPYLNITROSAMINE, 53609-64-6, N-ETHYL-N-HYDROXYETHYLNITROSAMINE, 13147-25-6, 3,2'-DIMETHYL-4-AMINO-, Carcinogen: 2,2'-DIHYDROXY-DI-N-PROPYLNITROSAMINE, 53609-64-6, N-ETHYL-N-HYDROXYETHYLNITROSAMINE, 13147-25-6, 3,2'-DIMETHYL-4-AMINO-, Dose [Inhibitor]: 0, 0.2% IN DIET FOR 32 WK BEGINNING 1 WK POST CARCINOGEN TREATMENT (STUDY DURATION: 36 WK), Strain/Sex: F344/MALE, Target Tissue: Type of Lesion: LUNG: CARCINOMA, Dose [Carcinogen]: 1000 MG/KG BW DHPN TWICE, 1500 MG/KG BW EHEN TWICE, 75 MG/KG BW 3 TIMES ADMINISTERED OVER FIRST 3 WK, Promoter: NONE USED", "result": "1/14 (7%), 3/15 (20%, -186%, not significant"},
      {"measurement": "tumour outcome (control, treated, inhibition, significance)", "setting": "Carcinogen: 2,2'-DIHYDROXY-DI-N-PROPYLNITROSAMINE, 53609-64-6, N-ETHYL-N-HYDROXYETHYLNITROSAMINE, 13147-25-6, 3,2'-DIMETHYL-4-AMINO-, Carcinogen: 2,2'-DIHYDROXY-DI-N-PROPYLNITROSAMINE, 53609-64-6, N-ETHYL-N-HYDROXYETHYLNITROSAMINE, 13147-25-6, 3,2'-DIMETHYL-4-AMINO-, Dose [Inhibitor]: 0, 0.2% IN DIET FOR 32 WK BEGINNING 1 WK POST CARCINOGEN TREATMENT (STUDY DURATION: 36 WK), Strain/Sex: F344/MALE, Target Tissue: Type of Lesion: THYROID GLAND: ADENOMA, Dose [Carcinogen]: 1000 MG/KG BW DHPN TWICE, 1500 MG/KG BW EHEN TWICE, 75 MG/KG BW 3 TIMES ADMINISTERED OVER FIRST 3 WK, Promoter: NONE USED", "result": "3/14 (21%), 3/15 (20%), 5%, not significant"},
      {"measurement": "tumour outcome (control, treated, inhibition, significance)", "setting": "Carcinogen: 2,2'-DIHYDROXY-DI-N-PROPYLNITROSAMINE, 53609-64-6, N-ETHYL-N-HYDROXYETHYLNITROSAMINE, 13147-25-6, 3,2'-DIMETHYL-4-AMINO-, Carcinogen: 2,2'-DIHYDROXY-DI-N-PROPYLNITROSAMINE, 53609-64-6, N-ETHYL-N-HYDROXYETHYLNITROSAMINE, 13147-25-6, 3,2'-DIMETHYL-4-AMINO-, Dose [Inhibitor]: 0, 0.2% IN DIET FOR 32 WK BEGINNING 1 WK POST CARCINOGEN TREATMENT (STUDY DURATION: 36 WK), Strain/Sex: F344/MALE, Target Tissue: Type of Lesion: URINARY BLADDER: CARCINOMA, Dose [Carcinogen]: 1000 MG/KG BW DHPN TWICE, 1500 MG/KG BW EHEN TWICE, 75 MG/KG BW 3 TIMES ADMINISTERED OVER FIRST 3 WK, Promoter: NONE USED", "result": "1/14 (7%), 1/15 (7%), 0%, not significant"},
      {"measurement": "outcome", "setting": "Carcinogen: 2,2'-DIHYDROXY-DI-N-PROPYLNITROSAMINE, 53609-64-6, N-ETHYL-N-HYDROXYETHYLNITROSAMINE, 13147-25-6, 3,2'-DIMETHYL-4-AMINO-, Carcinogen: 2,2'-DIHYDROXY-DI-N-PROPYLNITROSAMINE, 53609-64-6, N-ETHYL-N-HYDROXYETHYLNITROSAMINE, 13147-25-6, 3,2'-DIMETHYL-4-AMINO-, Dose [Inhibitor]: 0, 0.2% IN DIET FOR 32 WK BEGINNING 1 WK POST CARCINOGEN TREATMENT (STUDY DURATION: 36 WK), Strain/Sex: F344/MALE, Target Tissue: Type of Lesion: URINARY BLADDER: PAPILLOMA, Dose [Carcinogen]: 1000 MG/KG BW DHPN TWICE, 1500 MG/KG BW EHEN TWICE, 75 MG/KG BW ADMINISTERED OVER FIRST 3 WK, Promoter: NONE USED", "result": "0/14 (0%), 3/15 (20%), -100%, not significant"},
      {"measurement": "tumour outcome (control, treated, inhibition, significance)", "setting": "Carcinogen: 2,2'-DIHYDROXY-N-PROPYLNITROSAMINE, 53609-64-6, N-ETHYL-N-HYDROXYETHYL- NITROSAMINE, 13147-25-6, 3,2'-DIMETHYL-4-AMI, Carcinogen: 2,2'-DIHYDROXY-N-PROPYLNITROSAMINE, 53609-64-6, N-ETHYL-N-HYDROXYETHYL- NITROSAMINE, 13147-25-6, 3,2'-DIMETHYL-4-AMI, Dose [Inhibitor]: 0, 0.2% IN DIET BEGINNING 1 WK POST LAST CARCINOGEN DOSE AND CONTINUING FOR 32 WK (STUDY DURATION: 36 WK), Strain/Sex: F344/MALE, Target Tissue: Type of Lesion: LUNG: ADENOMA, Dose [Carcinogen]: 1000 MG/KG IP DHPN 2X , 1500 MG/KG GAV EHEN 2X AND 75 MG/KG SC DMAB 3X GIVEN OVER THE INITIAL 3 WK PERIOD AT 3-4 D INTER, Promoter: NONE USED", "result": "7/14 (50%), 6/15 (40%), 20%, not calculated"},
      {"measurement": "tumour outcome (control, treated, inhibition, significance)", "setting": "Carcinogen: 2-AMINO-1-METHYL-6-PHENYLIMIDAZO[4,5-B]PYRIDINE [105650-23-5], Dose [Inhibitor]: 0.1% IN DIET FOR 54 WK (STUDY DURATION: 54 WK), Strain/Sex: F344/DUCRJ/FEMALE, Target Tissue: Type of Lesion: COLON: ADENOMA OR ADENOCARCINOMA, Dose [Carcinogen]: 0.02% IN DIET FOR 54 WK (STUDY DURATION: 54 WK), Promoter: NONE", "result": "3/20 (15%), 3/20 (15%), 0%, not significant"},
      {"measurement": "tumour outcome (control, treated, inhibition, significance)", "setting": "Carcinogen: 2-AMINO-1-METHYL-6-PHENYLIMIDAZO[4,5-B]PYRIDINE [105650-23-5], Dose [Inhibitor]: 0.1% IN DIET FOR 54 WK (STUDY DURATION: 54 WK), Strain/Sex: F344/DUCRJ/FEMALE, Target Tissue: Type of Lesion: MAMMARY GLAND: ADENOMA OR ADENOCARCINOMA, Dose [Carcinogen]: 0.02% IN DIET FOR 54 WK (STUDY DURATION: 54 WK), Promoter: NONE", "result": "8/20 (40%), 3/20 (15%), 63%, not significant"}
    ]}
  ]
}
